Results as given in patent publication US8088806B2 (Achillion Pharmaceuticals, Inc., priority 2005, dated 2012).

These compounds were tested on HCV replicon (assay: Replicon based assay of HCV replication inhibition (NPT ELISA)). Conditions: Hepatitis C virus, Huh-7, 72 h, Table III; Huh-7 HCV replicon-containing cells, three days; read-out: Activity.
Format: cell-based, Hepatitis C virus
How it was run: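 NPT (neomycin phosphotransferase) content, proportional to replicon replication, quantified by capture ELISA on day four. Before that, replicon-bearing Huh-7 cells in G418-free screening medium were exposed three days at 37° C to compound, typically six doses from 10 to 0.03 micromolar, with equal DMSO across wells.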
Work on `FC(F)(F)c1cc(Nc2nc(-c3cccnc3)cs2)ccc1OCCCc1ccccc1` [compound 682, N-(4-(3-phenylpropoxy)-3-(trifluoromethyl)phenyl)-4-(pyridin-3-yl)thiazol-2-amine] yielded an EC50 of under 1 µM.
`CCCCCCCCOc1cccc(Nc2nc(-c3cccnc3)cs2)c1` [compound 683, N-(3-(octyloxy)phenyl)-4-(pyridin-3-yl)thiazol-2-amine] gave an EC50 of under 1 µM.
Compound `CCCCCCCCN(C)c1ncc(Nc2nc(-c3cccnc3)cs2)cc1C(F)(F)F` [compound 684, 3-(trifluoromethyl)-N^2-methyl-N^2-octyl-N^5-(4-(pyridin-3-yl)thiazol-2-yl)pyridine-2,5-diamine] has an EC50 of over 10 µM.
`CCCCCCCCOc1ccc(Nc2nc(-c3ccc(N)nc3)cs2)cc1` [compound 685, 5-(2-(4-(octyloxy)phenylamino)thiazol-4-yl)pyridin-2-amine] was tested, and the EC50 was under 1 µM.
Compound `CCCCCCCCOc1ccc(Nc2nc(-c3cnc(NC(C)=O)c(C)c3)cs2)cc1C(F)(F)F` [compound 686, N-(5-(2-(3-(trifluoromethyl)-4-(octyloxy)phenylamino)thiazol-4-yl)-3-methylpyridin-2-yl)acetamide] has an EC50 of under 1 µM.
In the case of `CCCCCCCCOc1ccc(Nc2nc(-c3cnc(N)c(C)c3)cs2)cc1C(F)(F)F` [compound 687, 5-(2-(3-(trifluoromethyl)-4-(octyloxy)phenylamino)thiazol-4-yl)-3-methylpyridin-2-amine], the EC50 is reported as under 1 µM.
In the case of `CCCCCCCCOc1ccc(Nc2nc(-c3cnc(NC(C)=O)c(C)c3)cs2)cc1` [compound 688, N-(5-(2-(4-(octyloxy)phenylamino)thiazol-4-yl)-3-methylpyridin-2-yl)acetamide], the EC50 is reported as 1 to 10 µM.
`CCCCCCCCN(C)c1ccc(Nc2nc(-c3cnc(OC)nc3)cs2)cc1C(F)(F)F` [compound 689, 2-(trifluoromethyl)-N^4-(4-(2-methoxypyrimidin-5-yl)thiazol-2-yl)-N^1-methyl-N-octylbenzene-1,4-diamine] gave an EC50 of under 1 µM.
For `CC(C)=CCC/C(C)=C/COc1ccc(Nc2nc(-c3cccnc3)cs2)cc1C(F)(F)F` [compound 690, N-(4-((E)-3,7-dimethylocta-2,6-dienyloxy)-3-(trifluoromethyl)phenyl)-4-(pyridin-3-yl)thiazol-2-amine], the EC50 was under 1 µM.
With `CC(C)CCCC(C)CCOc1ccc(Nc2nc(-c3cccnc3)cs2)cc1C(F)(F)F` (stereo not shown) [compound 691, N-(4-(3,7-dimethyloctyloxy)-3-(trifluoromethyl)phenyl)-4-(pyridin-3-yl)thiazol-2-amine] the EC50 was under 1 µM.
In the case of `CCCCCCCCSc1ccc(Nc2nc(-c3cccnc3)cs2)cc1C(F)(F)F` [compound 692, N-(3-(trifluoromethyl)-4-(octylthio)phenyl)-4-(pyridin-3-yl)thiazol-2-amine], the EC50 is reported as under 1 µM.
`FC(F)(F)c1cc(Nc2nc(-c3cccnc3)cs2)ccc1OCCCN1CCOCC1` [compound 693, N-(4-(3-morpholinopropoxy)-3-(trifluoromethyl)phenyl)-4-(pyridin-3-yl)thiazol-2-amine] showed an EC50 of 1 to 10 µM.
In the case of `CN1CCN(CCCOc2ccc(Nc3nc(-c4cccnc4)cs3)cc2C(F)(F)F)CC1` [compound 694, N-(4-(3-(4-methylpiperazin-1-yl)propoxy)-3-(trifluoromethyl)phenyl)-4-(pyridin-3-yl)thiazol-2-amine], the EC50 is reported as 1 to 10 µM.
`CN(C)CCCOc1ccc(Nc2nc(-c3cccnc3)cs2)cc1C(F)(F)F` [compound 695, N-(4-(3-(dimethylamino)propoxy)-3-(trifluoromethyl)phenyl)-4-(pyridin-3-yl)thiazol-2-amine] gave an EC50 of 1 to 10 µM.
`FC(F)(F)c1cc(Nc2nc(-c3cccnc3)cs2)ccc1OCCCN1CCCC1` [compound 696, N-(4-(3-(pyrrolidin-1-yl)propoxy)-3-(trifluoromethyl)phenyl)-4-(pyridin-3-yl)thiazol-2-amine] showed an EC50 of 1 to 10 µM.
`CCCCCCCCOC(=O)c1ccc(Nc2nc(-c3cccnc3)cs2)cc1C(F)(F)F` [compound 697, octyl 4-(4-(pyridin-3-yl)thiazol-2-ylamino)-2-(trifluoromethyl)benzoate] showed an EC50 of under 1 µM.
Work on `FC(F)(F)c1cc(Nc2nc(-c3cccnc3)cs2)ccc1N1CCC2CCCCC2C1` (stereo not shown) [compound 698, N-(3-(trifluoromethyl)-4-(octahydroisoquinolin-2(1H)-yl)phenyl)-4-(pyridin-3-yl)thiazol-2-amine] yielded an EC50 of under 1 µM.
For `O=C(c1ccc(Nc2nc(-c3ccc(F)cc3)cs2)cc1C(F)(F)F)N1CCC2CCCCC2C1` (stereo not shown) [compound 699, (4-(4-(4-fluorophenyl)thiazol-2-ylamino)-2-(trifluoromethyl)phenyl)(octahy-droisoquinolin-2(1H)-yl)methanone], the EC50 was over 10 µM.
Compound `CCCCCCCCOC(=O)c1ccc(Nc2nc(-c3ccc(F)cc3)cs2)cc1C(F)(F)F` [compound 700, octyl 4-(4-(4-fluorophenyl)thiazol-2-ylamino)-2-(trifluoromethyl)benzoate] has an EC50 of under 1 µM.
`CCCCCCCCOc1ccc(Nc2nc(-c3ccc4ncccc4n3)cs2)cc1C(F)(F)F` [compound 701, 4-(6-deuterated-1,5-naphthyndin-2-yl)-N-(4-(octyloxy)-3-(trifluoromethyl)phenyl)thiazol-2-amine] gave an EC50 of under 1 µM.
For `CCCCCCCCOc1ccc(Nc2nc(-c3cncnc3-c3ccccc3)cs2)cc1C(F)(F)F` [compound 702, N-(3-(trifluoromethyl)-4-(octyloxy)phenyl)-4-(4-phenylpyrimidin-5-yl)thiazol-2-amine], the EC50 was under 1 µM.
Compound `CCCCCCCCOc1ccc(Nc2nc(-c3ccc(C#N)o3)cs2)cc1C(F)(F)F` [compound 703, 5-(2-(3-(trifluoromethyl)-4-(octyloxy)phenylamino)thiazol-4-yl)furan-2-carbonitrile] has an EC50 of under 1 µM.
Compound `CCCCCCCCOc1ccc(Nc2nc(-c3ccc4oc(CO)cc4c3)cs2)cc1C(F)(F)F` [compound 704, (5-(2-(3-(trifluoromethyl)-4-(octyloxy)phenylamino)thiazol-4-yl)benzofuran-2-yl)methanol] has an EC50 of under 1 µM.
With `CCCCCCCCOc1ccc(Nc2nc(-c3cccc(OC)n3)cs2)cc1C(F)(F)F` [compound 705, N-(3-(trifluoromethyl)-4-(octyloxy)phenyl)-4-(6-methoxypyridin-2-yl)thiazol-2-amine] the EC50 was under 1 µM.
Work on `CCCCCCCCOc1ccc(Nc2nc(-c3ccc4c(c3)OCO4)cs2)cc1C(F)(F)F` [compound 706, 4-(benzo[d][1,3]dioxol-5-yl)-N-(3-(trifluoromethyl)-4-(octyloxy)phenyl)thiazol-2-amine] yielded an EC50 of under 1 µM.
Compound `CCCCCCCCOc1ccc(Nc2nc(-c3ccc4cc(OC)ccc4c3)cs2)cc1C(F)(F)F` [compound 707, N-(3-(trifluoromethyl)-4-(octyloxy)phenyl)-4-(2-methoxynaphthalen-6-yl)thiazol-2-amine] has an EC50 of under 1 µM.
Compound `CCCCCCCCOc1ccc(Nc2nc(-c3cccc4cccnc34)cs2)cc1C(F)(F)F` [compound 708, N-(3-(trifluoromethyl)-4-(octyloxy)phenyl)-4-(quinolin-8-yl)thiazol-2-amine] has an EC50 of under 1 µM.
In the case of `CCCCCCCCOc1ccc(Nc2nc(-c3ccc(C(F)(F)F)cn3)cs2)cc1C(F)(F)F` [compound 709, N-(3-(trifluoromethyl)-4-(octyloxy)phenyl)-4-(5-(trifluoromethyl)pyridin-2-yl)thiazol-2-amine], the EC50 is reported as under 1 µM.
With `CCCCCCCCOc1ccc(Nc2nc(-c3ncccc3O)cs2)cc1C(F)(F)F` [compound 710, 2-(2-(3-(trifluoromethyl)-4-(octyloxy)phenylamino)thiazol-4-yl)pyridin-3-ol] the EC50 was under 1 µM.
`CCCCCCCCOc1ccc(Nc2nc(-c3cccc(S(N)(=O)=O)c3)cs2)cc1C(F)(F)F` [compound 711] was tested, and the EC50 was under 1 µM.
`CCCCCCCCOc1ccc(Nc2nc(-c3ccc(S(N)(=O)=O)cc3)cs2)cc1C(F)(F)F` [compound 712] showed an EC50 of under 1 µM.
`CCCCCCCCOc1ccc(Nc2nc(-c3cnc(OC)nc3OC)cs2)cc1C(F)(F)F` [compound 713, N-(3-(trifluoromethyl)-4-(octyloxy)phenyl)-4-(2,4-dimethoxypyrimidin-5-yl)thiazol-2-amine] gave an EC50 of under 1 µM.
For `CCCCCCCCOc1ccc(Nc2nc(-c3ccsc3)cs2)cc1C(F)(F)F` [compound 714, N-(3-(trifluoromethyl)-4-(octyloxy)phenyl)-4-(thiophen-3-yl)thiazol-2-amine], the EC50 was under 1 µM.
Compound `CCCCCCCCOc1ccc(Nc2nc(-c3cccc(C(F)(F)F)c3)cs2)cc1C(F)(F)F` [compound 715, N-(3-(trifluoromethyl)-4-(octyloxy)phenyl)-4-(3-(tnfluoromethyl)phenyl)thiazol-2-amine] has an EC50 of under 1 µM.
Work on `CCCCCCCc1nc2cc(Nc3nc(-c4cccnc4)cs3)ccc2o1` [compound 716, 2-heptyl-N-(4-(pyridin-3-yl)thiazol-2-yl)benzo[d]oxazol-5-amine] yielded an EC50 of under 1 µM.
`CCCCCCCc1nc2cc(Nc3nc(-c4cnc(OC)nc4)cs3)ccc2o1` [compound 717, 2-heptyl-N-(4-(2-methoxypyrimidin-5-yl)thiazol-2-yl)benzo[d]oxazol-5-amine] gave an EC50 of under 1 µM.
Compound `O=C1OCc2cc(-c3csc(Nc4ccc(OCC5CCCCC5)c(F)c4)n3)ccc21` [compound 718, 5-(2-(4-(cyclohexylmethoxy)-3-fluorophenylamino)thiazol-4-yl)isobenzofuran-1(3H)-one] has an EC50 of 1 to 10 µM.
Work on `Fc1cc(Nc2nc(-c3ccc(-n4ccnc4)cc3)cs2)ccc1OCC1CCCCC1` [compound 719, 4-(4-(1H-imidazol-1-yl)phenyl)-N-(4-(cyclohexylmethoxy)-3-fluorophenyl)thiazol-2-amine] yielded an EC50 of under 1 µM.

Same assay, conditions: Hepatitis C virus, replicon based assay of HCV replication inhibition; Table IV; read-out: Activity
`COc1ncc(-c2csc(Nc3ccc(OCC4CCCCC4)c(F)c3)n2)cn1` [compound 720, N-(4-(cyclohexylmethoxy)-3-fluorophenyl)-4-(2-methoxypyrimidin-5-yl)thiazol-2-amine] was tested, and the EC50 was under 1 µM.
In the case of `Fc1cc(Nc2nc(-c3cccc4nsnc34)cs2)ccc1OCC1CCCCC1` [compound 722, 4-(benzo[c][1,2,5]thiadiazol-4-yl)-N-(4-(cyclohexylmethoxy)-3-fluorophenyl)thiazol-2-amine], the EC50 is reported as 1 to 10 µM.
